Measurements reported in patent US7396837B2, “Antitumoral analogs of lamellarins” (Pharma Mar, S.A.U., priority 2002, dated 2008).
Like-named read-outs stand apart in the source and are kept apart here.

Experiments:
Type in all cases: cell-based
[1] = test system: K-562; assay: SRB colorimetric cell growth inhibition assay, K-562; conditions: for IC (TGI): total growth inhibition (cytostatic effect), read-out: TGI K-562; for CC50: cell killing (cytotoxic effect); for GI50: GI=growth inhibition, read-out: GI50 K-562
Method in brief: (§1)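 After uninterrupted treatment, cultures are fixed and stained with sulforhodamine B, and absorbance reflects cell growth and viability. Each value represents the average of triplicate wells with SD.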

[2] = test system: A-549; assay: SRB colorimetric cell growth inhibition assay, A-549; conditions: for GI50: GI=growth inhibition, read-out: GI50 A-549; for IC (TGI): total growth inhibition (cytostatic effect), read-out: TGI A-549; for CC50: cell killing (cytotoxic effect)
Method in brief: as §1

[3] = test system: SK-MEL-28; assay: SRB colorimetric cell growth inhibition assay, SK-MEL-28; conditions: for IC (TGI): total growth inhibition (cytostatic effect), read-out: TGI MEL-28; for GI50: GI=growth inhibition, read-out: GI50 MEL-28
Method in brief: as §1

[4] = test system: HT-29; assay: SRB colorimetric cell growth inhibition assay, HT-29; conditions: for GI50: GI=growth inhibition, read-out: GI50 HT-29; for CC50: cell killing (cytotoxic effect); for IC (TGI): total growth inhibition (cytostatic effect), read-out: TGI HT-29
Method in brief: as §1

[5] = test system: LoVo; assay: SRB colorimetric cell growth inhibition assay, LoVo; conditions: for CC50: cell killing (cytotoxic effect); for IC (TGI): total growth inhibition (cytostatic effect), read-out: TGI LOVO; for GI50: GI=growth inhibition, read-out: GI50 LOVO
Method in brief: as §1

[6] = test system: LoVo-Dox; assay: SRB colorimetric cell growth inhibition assay, LoVo-Dox (MDR); conditions: for IC (TGI): total growth inhibition (cytostatic effect), read-out: TGI LOVO-DOX; for CC50: cell killing (cytotoxic effect); for GI50: GI=growth inhibition, read-out: GI50 LOVO-DOX
Method in brief: as §1

[7] = test system: DU-145; assay: SRB colorimetric cell growth inhibition assay, DU-145; conditions: for GI50: GI=growth inhibition, read-out: GI50 DU-145
Method in brief: as §1

[8] = test system: LNCaP; assay: SRB colorimetric cell growth inhibition assay, LNCaP; conditions: for GI50: GI=growth inhibition, read-out: GI50 LN-caP
Method in brief: as §1

[9] = test system: SK-BR-3; assay: SRB colorimetric cell growth inhibition assay, SK-BR-3; conditions: for GI50: GI=growth inhibition, read-out: GI50 SK-BR-3
Method in brief: as §1

[10] = test system: IGROV; assay: SRB colorimetric cell growth inhibition assay, IGROV; conditions: for GI50: GI=growth inhibition, read-out: GI50 IGROV
Method in brief: as §1

[11] = test system: IGROV-ET; assay: SRB colorimetric cell growth inhibition assay, IGROV-ET (ET-743 resistant); conditions: for GI50: GI=growth inhibition, read-out: GI50 IGROV-ET
Method in brief: as §1

[12] = test system: HeLa; assay: SRB colorimetric cell growth inhibition assay, HeLa; conditions: Homo sapiens, HeLa; for CC50: cell killing (cytotoxic effect); for IC (TGI): read-out: TGI HELA; for GI50: GI=growth inhibition, read-out: GI50 HELA
Method in brief: as §1

[13] = test system: HeLa-APL; assay: SRB colorimetric cell growth inhibition assay, HeLa-APL (aplidine resistant); conditions: Homo sapiens; for GI50: read-out: GI50 HELA-APL; for CC50: cell killing (cytotoxic effect); for IC (TGI): read-out: TGI HELA-APL
Method in brief: as §1

[14] = test system: PANC-1; assay: SRB colorimetric cell growth inhibition assay, PANC-1; conditions: for IC (TGI): total growth inhibition (cytostatic effect), read-out: TGI PANC-1; for CC50: cell killing (cytotoxic effect); for GI50: GI=growth inhibition, read-out: GI50 PANC-1
Method in brief: as §1

[15] = Homo sapiens, SK-MEL-28, MEL-28

For COc1cc(-c2c3c4cc(OC)c(OC(=O)[C@@H](N)C(C)C)cc4oc(=O)c3n3ccc4c(OC(=O)[C@@H](N)C(C)C)c(OC)c(OC)cc4c23)ccc1OC(=O)[C@@H](N)C(C)C [Compound 190], the IC (TGI) ([1]; Homo sapiens, K562, K-562) was 7.12 µM, the CC50 ([1]; Homo sapiens, K562, read-out: LC50 K-562, K-562) was 10.7 µM and the GI50 ([1]; K-562) was 0.0718 µM. For the same compound, the GI50 ([2]; A-549) was 0.167 µM, the IC (TGI) ([2]; Homo sapiens, A549, A-549) was 1.66 µM and the CC50 ([2]; Homo sapiens, A549, read-out: LC50 A-549, A-549) was 10.7 µM. The IC (TGI) [3, 15] was 10.7 µM, the GI50 ([3]; MEL-28) was 9.15 µM and the CC50 ([3]; human) was 10.7 µM. The GI50 ([4]; HT-29) was 2.99 µM, the CC50 ([4]; Homo sapiens, HT-29, read-out: LC50 HT-29, HT-29) was 10.7 µM and the IC (TGI) ([4]; Homo sapiens, HT-29) was 10.7 µM. The CC50 ([5]; Homo sapiens, LoVo, read-out: LC50 LOVO, LOVO) was 5.46 µM, the IC (TGI) ([5]; Homo sapiens, LoVo) was 1.2 µM and the GI50 ([5]; LOVO) was 0.285 µM. It also gave an IC (TGI) ([6]; Homo sapiens, LOVO-DOX) of 1.37 µM, a CC50 ([6]; Homo sapiens, read-out: LC50 LOVO-DOX, LOVO-DOX) of 7.68 µM and a GI50 ([6]; LOVO-DOX) of 0.31 µM. For the same compound, the GI50 ([7]; DU-145) was 0.0575 µM, the “TGI DU-145” value ([7]; DU-145, total growth inhibition (cytostatic effect)) was 2.63E−07 Molar and the CC50 ([7]; human) was 10.7 µM. For the same compound, the GI50 ([8]; LN-caP) was 0.0486 µM, the “TGI LN-caP” value ([8]; LN-caP, total growth inhibition (cytostatic effect)) was 2.97E−07 Molar and the CC50 ([8]; human) was 1.97 µM. The GI50 ([9]; SK-BR-3) was 0.0922 µM, the “TGI SK-BR-3” value ([9]; SK-BR-3, total growth inhibition (cytostatic effect)) was 3.83E−07 Molar and the CC50 ([9]; human) was 2.63 µM. For the same compound, the GI50 ([10]; IGROV) was 0.134 µM, the “TGI IGROV” value ([10]; IGROV, total growth inhibition (cytostatic effect)) was 8.95E−07 Molar and the CC50 ([10]; human) was 8.32 µM. For the same compound, the GI50 ([11]; IGROV-ET) was 0.102 µM, the “TGI IGROV-ET” value ([11]; IGROV-ET, total growth inhibition (cytostatic effect)) was 1.20E−06 Molar and the CC50 ([11]; human) was 6.42 µM. For the same compound, the CC50 ([12]; read-out: LC50 HELA, HELA) was 3.93 µM, the IC (TGI) [12] was 1.31 µM and the GI50 [12] was 0.0833 µM. The GI50 [13] was 0.0899 µM, the CC50 ([13]; read-out: LC50 HELA-APL, HELA-APL) was 5.2 µM and the IC (TGI) [13] was 1.72 µM. For the same compound, the IC (TGI) ([14]; Homo sapiens, PANC-1, PANC-1) was 3.5 µM, the CC50 ([14]; Homo sapiens, PANC-1, read-out: LC50 PANC-1, PANC-1) was 10.7 µM and the GI50 ([14]; PANC-1) was 0.376 µM.
COc1cc(-c2c3c4cc(OC)c(OC(=O)[C@@H](N)Cc5ccccc5)cc4oc(=O)c3n3ccc4cc(OC(=O)[C@@H](N)Cc5ccccc5)c(OC)cc4c23)ccc1OC(=O)[C@@H](N)Cc1ccccc1 [Compound 204] gave a GI50 ([1]; Homo sapiens, K562, K-562) of 0.00748 µM, a CC50 ([1]; Homo sapiens, K562, K-562, read-out: LC50 K-562) of 0.596 µM and an IC (TGI) ([1]; Homo sapiens, K562, K-562) of 0.203 µM. It also gave a GI50 ([2]; Homo sapiens, A549, A-549) of 0.0311 µM, a CC50 ([2]; Homo sapiens, A549, A-549, read-out: LC50 A-549) of 9.52 µM and an IC (TGI) ([2]; Homo sapiens, A549, A-549) of 1 µM. The GI50 [3, 15] was 0.0268 µM, the CC50 ([3]; Homo sapiens, SK-MEL-28, MEL-28, cell killing (cytotoxic effect), read-out: LC50 MEL-28) was 7.14 µM and the IC (TGI) [3, 15] was 0.243 µM. The GI50 ([4]; Homo sapiens, HT-29, HT-29) was 1.4 µM, the CC50 ([4]; Homo sapiens, HT-29, HT-29, read-out: LC50 HT-29) was 9.52 µM and the IC (TGI) ([4]; Homo sapiens, HT-29, HT-29) was 3.8 µM. The GI50 ([5]; Homo sapiens, LoVo) was 0.113 µM, the CC50 ([5]; Homo sapiens, LoVo, read-out: LC50 LOVO) was 0.463 µM and the IC (TGI) ([5]; Homo sapiens, LoVo) was 0.228 µM. For the same compound, the GI50 ([6]; Homo sapiens, LOVO-DOX) was 0.16 µM, the CC50 ([6]; Homo sapiens, LOVO-DOX, read-out: LC50 LOVO-DOX) was 9.52 µM and the IC (TGI) ([6]; Homo sapiens, LOVO-DOX) was 6.34 µM. For the same compound, the GI50 ([7]; Homo sapiens, DU-145, DU-145) was 0.00563 µM, the CC50 ([7]; Homo sapiens, DU-145, DU-145, cell killing (cytotoxic effect), read-out: LC50 DU-145) was 0.0447 µM and the IC (TGI) ([7]; Homo sapiens, DU-145, DU-145, total growth inhibition (cytostatic effect), read-out: TGI DU-145) was 0.0174 µM. It also gave a GI50 ([8]; Homo sapiens, LNCaP, LN-caP) of 0.079 µM, a CC50 ([8]; Homo sapiens, LNCaP, LN-caP, cell killing (cytotoxic effect), read-out: LC50 LN-caP) of 0.597 µM and an IC (TGI) ([8]; Homo sapiens, LNCaP, LN-caP, total growth inhibition (cytostatic effect), read-out: TGI LN-caP) of 0.229 µM. The GI50 ([9]; Homo sapiens, SK-BR-3, SK-BR-3) was 0.151 µM, the CC50 ([9]; Homo sapiens, SK-BR-3, SK-BR-3, cell killing (cytotoxic effect), read-out: LC50 SK-BR-3) was 1.09 µM and the IC (TGI) ([9]; Homo sapiens, SK-BR-3, SK-BR-3, total growth inhibition (cytostatic effect), read-out: TGI SK-BR-3) was 0.39 µM. The GI50 ([10]; Homo sapiens, IGROV) was 0.0238 µM, the CC50 ([10]; Homo sapiens, IGROV, cell killing (cytotoxic effect), read-out: LC50 IGROV) was 0.526 µM and the IC (TGI) ([10]; Homo sapiens, IGROV, total growth inhibition (cytostatic effect), read-out: TGI IGROV) was 0.113 µM. For the same compound, the GI50 ([11]; Homo sapiens, IGROV-ET) was 0.018 µM, the CC50 ([11]; Homo sapiens, IGROV-ET, cell killing (cytotoxic effect), read-out: LC50 IGROV-ET) was 9.52 µM and the IC (TGI) ([11]; Homo sapiens, IGROV-ET, total growth inhibition (cytostatic effect), read-out: TGI IGROV-ET) was 0.109 µM. For the same compound, the GI50 [12] was 0.0369 µM, the CC50 ([12]; read-out: LC50 HELA) was 0.452 µM and the IC (TGI) ([12]; total growth inhibition (cytostatic effect)) was 0.172 µM. The GI50 ([13]; HELA-APL, GI=growth inhibition) was 0.0888 µM, the CC50 ([13]; HELA-APL, read-out: LC50 HELA-APL) was 0.594 µM and the IC (TGI) ([13]; HELA-APL, total growth inhibition (cytostatic effect)) was 0.235 µM. The GI50 ([14]; Homo sapiens, PANC-1, PANC-1) was 0.0447 µM, the CC50 ([14]; Homo sapiens, PANC-1, PANC-1, read-out: LC50 PANC-1) was 0.392 µM and the IC (TGI) ([14]; Homo sapiens, PANC-1, PANC-1) was 0.171 µM.
